According to publication PMC4621994 (British Journal of Pharmacology, 2015):
Several values for one entry are separate records, joined by “and”; a condition that tells them apart may be missing. Identical values can stand only once. Entries after “also recorded” stand apart in the source; their conditions may differ. Like-named read-outs stand apart in the source and are kept apart here.

Assays:
[1] = test system: mIPSCs in hippocampal neurons; type: cell-based, rat
[2] = test system: tonically active GABAA receptors in hippocampal neurons; type: cell-based, rat
[3] = test system: native GABAA receptors in hippocampal neurons; assay: GABA-evoked currents in cultured hippocampal neurons, perforated patch; type: cell-based, rat; settings: for GABA Emax (normalized) in the presence of flupirtine (30 μM) / GABA Emax (normalized), solvent: Hippocampus neurons
[4] = test system: aEPSCs in hippocampal neurons; assay: Autaptic excitatory postsynaptic currents (aEPSCs) in hippocampal microcultures; type: cell-based, rat
α1β2 GABAA receptor = target: T1, α1β2 GABAA receptor (Rattus norvegicus, UniProt P62813+P63138); assay: GABA-evoked currents through recombinant receptors in tsA 201 cells; type: cell-based; settings: 30 μM flupirtine, normalized to 30 μM GABA in solvent
T1 construct: expressed in transfected cells; host or cells: tsA 201 cells
T1 sequence (P62813 28-455): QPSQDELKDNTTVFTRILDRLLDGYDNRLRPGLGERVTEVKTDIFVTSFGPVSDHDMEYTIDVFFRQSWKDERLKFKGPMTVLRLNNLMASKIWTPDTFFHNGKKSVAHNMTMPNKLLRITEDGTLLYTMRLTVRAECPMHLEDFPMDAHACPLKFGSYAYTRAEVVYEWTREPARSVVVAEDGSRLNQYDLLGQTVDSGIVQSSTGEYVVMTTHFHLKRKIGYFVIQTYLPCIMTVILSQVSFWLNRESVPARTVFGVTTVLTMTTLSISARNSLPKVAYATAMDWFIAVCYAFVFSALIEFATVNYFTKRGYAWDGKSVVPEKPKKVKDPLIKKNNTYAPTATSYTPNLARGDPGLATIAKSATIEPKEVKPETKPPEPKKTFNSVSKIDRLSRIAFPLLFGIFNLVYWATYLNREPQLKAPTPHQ
T1 sequence (P63138 25-474 limits assumed): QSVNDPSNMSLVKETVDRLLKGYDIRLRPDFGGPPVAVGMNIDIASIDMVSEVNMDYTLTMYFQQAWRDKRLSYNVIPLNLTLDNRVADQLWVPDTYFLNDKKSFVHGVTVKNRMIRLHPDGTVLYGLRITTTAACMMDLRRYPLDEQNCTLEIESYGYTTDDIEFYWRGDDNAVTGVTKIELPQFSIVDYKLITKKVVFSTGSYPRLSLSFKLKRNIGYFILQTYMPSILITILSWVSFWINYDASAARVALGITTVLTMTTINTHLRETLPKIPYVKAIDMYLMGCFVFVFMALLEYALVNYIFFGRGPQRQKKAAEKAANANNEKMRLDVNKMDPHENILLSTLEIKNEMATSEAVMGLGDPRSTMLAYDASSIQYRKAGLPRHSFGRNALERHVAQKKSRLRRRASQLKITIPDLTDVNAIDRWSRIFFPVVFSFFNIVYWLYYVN

α1β2γ2S GABAA receptor = target: T2, α1β2γ2S GABAA receptor (Rattus norvegicus, UniProt P18508+P62813+P63138); assay: as above; type: cell-based
T2 construct: expressed in transfected cells; host or cells: tsA 201 cells
T2 sequence (P62813 28-455): as the sequence (P62813 28-455) above
T2 sequence (P63138 25-474 limits assumed): as the sequence (P63138 25-474 limits assumed) above
T2 sequence (P18508 39-466): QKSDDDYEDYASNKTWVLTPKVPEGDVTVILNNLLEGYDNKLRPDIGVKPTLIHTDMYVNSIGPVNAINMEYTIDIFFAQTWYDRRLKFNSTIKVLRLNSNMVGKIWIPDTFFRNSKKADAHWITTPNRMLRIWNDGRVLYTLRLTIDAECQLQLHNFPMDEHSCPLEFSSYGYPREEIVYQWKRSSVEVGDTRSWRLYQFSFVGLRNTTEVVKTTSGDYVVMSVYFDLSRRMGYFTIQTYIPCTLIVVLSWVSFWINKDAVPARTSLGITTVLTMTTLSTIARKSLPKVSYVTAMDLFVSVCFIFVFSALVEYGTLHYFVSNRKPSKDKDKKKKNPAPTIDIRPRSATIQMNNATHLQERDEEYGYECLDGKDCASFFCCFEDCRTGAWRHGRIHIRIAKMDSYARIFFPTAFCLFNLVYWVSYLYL

α1β2δ GABAA receptor = target: T3, α1β2δ GABAA receptor (Rattus norvegicus, UniProt P18506+P62813+P63138); assay: as above; type: cell-based
T3 construct: expressed in transfected cells; host or cells: tsA 201 cells
T3 sequence (P62813 28-455): as the sequence (P62813 28-455) above
T3 sequence (P63138 25-474 limits assumed): as the sequence (P63138 25-474 limits assumed) above
T3 sequence (P18506 17-449 limits assumed): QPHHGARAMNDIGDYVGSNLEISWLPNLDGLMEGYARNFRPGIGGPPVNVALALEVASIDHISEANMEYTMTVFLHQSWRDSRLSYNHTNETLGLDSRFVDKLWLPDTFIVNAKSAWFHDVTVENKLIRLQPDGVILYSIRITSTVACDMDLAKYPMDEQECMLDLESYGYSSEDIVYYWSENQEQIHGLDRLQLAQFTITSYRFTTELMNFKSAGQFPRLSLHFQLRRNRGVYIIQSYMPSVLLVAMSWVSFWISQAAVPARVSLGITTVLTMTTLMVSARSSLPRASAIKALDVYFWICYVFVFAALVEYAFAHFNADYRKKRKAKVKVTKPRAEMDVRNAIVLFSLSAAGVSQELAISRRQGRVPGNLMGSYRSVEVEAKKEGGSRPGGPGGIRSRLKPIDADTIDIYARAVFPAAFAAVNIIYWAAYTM

α2β2γ2S GABAA receptor = target: T4, α2β2γ2S GABAA receptor (Rattus norvegicus, UniProt P18508+P23576+P63138); assay: as above; type: cell-based; settings: 30 μM flupirtine, normalized to 30 μM GABA in solvent, n.s. vs solvent
T4 construct: expressed in transfected cells; host or cells: tsA 201 cells
T4 sequence (P23576 29-451): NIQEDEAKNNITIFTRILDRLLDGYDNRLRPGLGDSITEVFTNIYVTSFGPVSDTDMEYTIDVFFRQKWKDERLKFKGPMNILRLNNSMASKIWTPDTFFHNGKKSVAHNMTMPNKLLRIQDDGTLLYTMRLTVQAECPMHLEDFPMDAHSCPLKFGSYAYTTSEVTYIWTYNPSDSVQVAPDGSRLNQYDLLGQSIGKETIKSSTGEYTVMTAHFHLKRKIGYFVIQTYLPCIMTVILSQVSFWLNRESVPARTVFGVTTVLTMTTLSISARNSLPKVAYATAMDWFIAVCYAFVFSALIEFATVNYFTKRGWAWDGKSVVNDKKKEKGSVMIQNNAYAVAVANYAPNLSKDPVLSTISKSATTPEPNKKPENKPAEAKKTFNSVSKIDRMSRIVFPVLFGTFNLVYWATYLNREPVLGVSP
T4 sequence (P63138 25-474 limits assumed): as the sequence (P63138 25-474 limits assumed) above
T4 sequence (P18508 39-466): as the sequence (P18508 39-466) above

α3β3γ2S GABAA receptor = target: T5, α3β3γ2S GABAA receptor (Rattus norvegicus, UniProt P18508+P20236+P63079); assay: as above; type: cell-based; settings: 30 μM flupirtine, normalized to 30 μM GABA in solvent, n.s. vs solvent
T5 construct: expressed in transfected cells; host or cells: tsA 201 cells
T5 sequence (P20236 29-493): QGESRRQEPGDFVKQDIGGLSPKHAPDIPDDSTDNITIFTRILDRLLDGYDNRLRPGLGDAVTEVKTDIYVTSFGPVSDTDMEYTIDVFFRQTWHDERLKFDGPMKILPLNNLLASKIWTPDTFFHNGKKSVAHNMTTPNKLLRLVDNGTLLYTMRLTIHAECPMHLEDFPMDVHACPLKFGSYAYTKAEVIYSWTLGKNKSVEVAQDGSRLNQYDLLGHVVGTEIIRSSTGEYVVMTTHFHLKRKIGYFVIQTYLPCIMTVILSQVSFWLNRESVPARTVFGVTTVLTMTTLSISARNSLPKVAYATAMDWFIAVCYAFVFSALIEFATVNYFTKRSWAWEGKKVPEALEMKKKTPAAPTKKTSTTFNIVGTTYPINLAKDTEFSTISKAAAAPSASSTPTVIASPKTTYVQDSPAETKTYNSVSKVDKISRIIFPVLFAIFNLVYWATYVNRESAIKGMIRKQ
T5 sequence (P63079 26-473): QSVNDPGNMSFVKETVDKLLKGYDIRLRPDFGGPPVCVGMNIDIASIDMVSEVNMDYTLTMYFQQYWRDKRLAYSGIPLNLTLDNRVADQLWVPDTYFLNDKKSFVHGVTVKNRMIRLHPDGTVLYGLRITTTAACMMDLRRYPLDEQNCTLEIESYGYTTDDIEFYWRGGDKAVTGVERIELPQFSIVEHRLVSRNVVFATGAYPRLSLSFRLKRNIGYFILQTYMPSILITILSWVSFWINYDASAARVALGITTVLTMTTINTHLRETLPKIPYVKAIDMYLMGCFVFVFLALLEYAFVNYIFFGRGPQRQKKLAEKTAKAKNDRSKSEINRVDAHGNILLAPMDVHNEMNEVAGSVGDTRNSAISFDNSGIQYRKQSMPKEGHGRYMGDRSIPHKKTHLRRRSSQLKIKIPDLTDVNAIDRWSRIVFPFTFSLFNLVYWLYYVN
T5 sequence (P18508 39-466): as the sequence (P18508 39-466) above

α4β3 GABAA receptor = target: T6, α4β3 GABAA receptor (Rattus norvegicus, UniProt P28471+P63079); assay: as above; type: cell-based; settings: 30 μM flupirtine, normalized to 30 μM GABA in solvent
T6 construct: expressed in transfected cells; host or cells: tsA 201 cells
T6 sequence (P28471 36-552): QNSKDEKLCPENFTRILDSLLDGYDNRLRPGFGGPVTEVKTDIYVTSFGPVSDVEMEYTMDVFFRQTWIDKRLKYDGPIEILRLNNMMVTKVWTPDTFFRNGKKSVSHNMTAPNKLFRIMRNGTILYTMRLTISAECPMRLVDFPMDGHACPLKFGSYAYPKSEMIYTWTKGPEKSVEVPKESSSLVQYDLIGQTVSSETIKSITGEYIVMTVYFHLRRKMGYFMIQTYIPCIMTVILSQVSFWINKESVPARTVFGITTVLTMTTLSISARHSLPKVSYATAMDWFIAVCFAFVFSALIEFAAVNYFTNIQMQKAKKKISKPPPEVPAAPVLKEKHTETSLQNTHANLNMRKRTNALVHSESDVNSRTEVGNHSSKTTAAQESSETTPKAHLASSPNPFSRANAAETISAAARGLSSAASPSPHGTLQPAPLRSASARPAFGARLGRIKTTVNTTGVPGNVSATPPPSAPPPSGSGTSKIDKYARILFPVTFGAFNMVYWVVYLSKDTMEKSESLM
T6 sequence (P63079 26-473): as the sequence (P63079 26-473) above

α4β3γ2S GABAA receptor = target: T7, α4β3γ2S GABAA receptor (Rattus norvegicus, UniProt P18508+P28471+P63079); assay: as above; type: cell-based; settings: 30 μM flupirtine, normalized to 30 μM GABA in solvent
T7 construct: expressed in transfected cells; host or cells: tsA 201 cells
T7 sequence (P28471 36-552): as the sequence (P28471 36-552) above
T7 sequence (P63079 26-473): as the sequence (P63079 26-473) above
T7 sequence (P18508 39-466): as the sequence (P18508 39-466) above

α4β3δ GABAA receptor = target: T8, α4β3δ GABAA receptor (Rattus norvegicus, UniProt P18506+P28471+P63079); assay: as above; type: cell-based
T8 construct: expressed in transfected cells; host or cells: tsA 201 cells
T8 sequence (P28471 36-552): as the sequence (P28471 36-552) above
T8 sequence (P63079 26-473): as the sequence (P63079 26-473) above
T8 sequence (P18506 17-449 limits assumed): as the sequence (P18506 17-449 limits assumed) above

α5β3γ2S GABAA receptor = target: T9, α5β3γ2S GABAA receptor (Rattus norvegicus, UniProt P18508+P19969+P63079); assay: as above; type: cell-based; settings: 30 μM flupirtine, normalized to 30 μM GABA in solvent
T9 construct: expressed in transfected cells; host or cells: tsA 201 cells
T9 sequence (P19969 32-464 limits assumed): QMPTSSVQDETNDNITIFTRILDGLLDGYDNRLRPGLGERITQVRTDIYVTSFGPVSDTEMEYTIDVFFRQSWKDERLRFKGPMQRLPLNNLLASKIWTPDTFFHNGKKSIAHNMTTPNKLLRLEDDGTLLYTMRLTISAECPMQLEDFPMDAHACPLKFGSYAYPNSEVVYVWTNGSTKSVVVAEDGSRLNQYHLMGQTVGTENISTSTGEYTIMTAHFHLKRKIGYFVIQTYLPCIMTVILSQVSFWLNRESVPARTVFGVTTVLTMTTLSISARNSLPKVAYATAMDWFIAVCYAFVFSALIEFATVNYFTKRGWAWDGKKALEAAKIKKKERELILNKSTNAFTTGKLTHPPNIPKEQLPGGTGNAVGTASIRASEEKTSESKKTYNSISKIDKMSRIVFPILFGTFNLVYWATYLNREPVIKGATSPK
T9 sequence (P63079 26-473): as the sequence (P63079 26-473) above
T9 sequence (P18508 39-466): as the sequence (P18508 39-466) above

[5] = target: T10, heteromeric Kv7.2/Kv7.3 channels (UniProt O43526+O88944); assay: Currents through recombinant Kv7 channels in tsA 201 cells, ramp hyperpolarizations, amplitude at −30 mV; type: cell-based
T10 construct: expressed in transfected cells; host or cells: tsA 201 cells

[6] = test system: aIPSCs in hippocampal neurons; assay: Autaptic inhibitory postsynaptic currents (aIPSCs) in hippocampal microcultures; type: cell-based, rat
[7] = target: T11, δ-containing GABAA receptors in hippocampal neurons (Rattus norvegicus, UniProt P18506); assay: THIP-evoked currents in cultured hippocampal neurons; type: cell-based; settings: 30 μM flupirtine; 3 μM THIP; greater extent than 3 μM GABA in 5 mM penicillin
T11 construct: endogenous in cells; host or cells: primary cultured rat hippocampal neurons
T11 sequence (P18506 17-449 limits assumed): as the sequence (P18506 17-449 limits assumed) above

[8] = test system: Kv7 channels in hippocampal neurons; assay: K+ currents in hippocampal neurons, ramp hyperpolarizations, amplitude at −30 mV; type: cell-based, rat
[9] = target: T12, δ-containing GABAA receptors in DH neurons (Rattus norvegicus, UniProt P18506); assay: THIP-evoked currents in dorsal horn neurons; type: cell-based; settings: 3 μM THIP; concentration-dependent; more pronounced than on GABA currents; at 10 μM larger than on K+ currents
T12 construct: endogenous in cells; host or cells: primary cultured rat dorsal horn neurons
T12 sequence (P18506 17-449 limits assumed): as above

[10] = test system: GABAA receptors in DH neurons; assay: GABA-evoked currents in dorsal horn neurons; type: cell-based, rat; settings: 3 μM GABA; concentration-dependent
[11] = test system: Kv7 channels in DH neurons; assay: K+ currents in dorsal horn neurons, ramp hyperpolarizations, amplitude at −30 mV; type: cell-based, rat; settings: 3 and 10 μM flupirtine; quantified at −30 mV
[12] = Plasma pharmacokinetics and therapeutic plasma levels of flupirtine (literature); type: in vivo; settings: after single doses
[13] = test system: untransfected tsA 201 cells; assay: Control recordings in untransfected tsA 201 cells; type: cell-based; settings: control experiments
Description: Primary cultures of rat hippocampal and DH neurons were prepared as described previously (Klinger et al., [2012]). Micro-island cultures were obtained as detailed elsewhere (Dorostkar and Boehm, [2007]). For heterologous expression of GABAA receptors and Kv7 channels, tsA 201 cells (a subclone of HEK 293 cells) were cultured in DMEM containing 1 g · L^−1 glucose and 10% heat-inactivated fetal calf serum. Cells were transfected using ExGen 500 or TurboFect according to the manufacturer's recommendations, with a transfection ratio of 1:1 for αβ receptors, 1:1:8 for αβγ or αβδ receptors and 1:1 for heteromeric Kv7.2/Kv7.3 channels. The day after transfection, cells were seeded at a low density and used for patch-clamp recordings 24–48 h after transfection.

[14] = test system: αβ and γ-containing recombinant GABAA receptors; type: cell-based, rat
[15] = cited from earlier work
[16] = design: method as in Friedel and Fitton, 1993; settings: ref Friedel and Fitton, 1993; cited from earlier work
Kv7 channels = test system: Kv7 channels; design: method as in Klinger et al., 2012; settings: ref Klinger et al., 2012; read-out: EC50 for the facilitation of Kv7 channels; cited from earlier work

Cc1ncc2n1-c1ccc(Cl)cc1C(c1ccccc1F)=NC2 [midazolam]
Effect on half widths of mIPSCs ([1]; 3 μM midazolam): increased | Effect on mIPSC amplitudes or rise times ([1]; 3 μM midazolam): without altering | Effect on holding currents ([2]; 3 μM midazolam): slight shift of holding currents in an inward direction

penicillin
Effect on maximal amplitudes of GABA-evoked currents ([3]; 5 mM penicillin): significantly reduced | Effect on mIPSCs ([1]; 5 mM penicillin): abolished | Effect on holding currents ([2]; 5 mM penicillin): did not affect

N#Cc1cc2nc(O)c(O)nc2cc1[N+](=O)[O-] [CNQX, cyano-2,3-dihydroxy-7-nitroquinoxaline]
Effect on aEPSCs ([4]; 10 μM CNQX): blocked

CCOC(=O)Nc1ccc(NCc2ccc(F)cc2)nc1N [Flupirtine]
Maximal increase in GABA-evoked current amplitudes (factor) [3]: ~9 and > 8 | Maximal increase in GABA-evoked current amplitudes (factor) ([3]; 3 μM GABA in solvent, no penicillin): 2.5 and < 3 | Effect of flupirtine on GABA-evoked currents ([3]; 3 μM flupirtine, presence of penicillin): enhanced | Effect of flupirtine on GABA-evoked currents ([3]; 10 μM flupirtine, absence of penicillin): increased | Effect of flupirtine on GABA-evoked currents ([3]; 10 μM flupirtine, presence of penicillin, more pronounced than on the other currents): increased | GABA Emax (normalized) in the presence of flupirtine (30 μM) ([3]; 30 μM flupirtine, normalized to 30 μM GABA in solvent, n.s. vs solvent): 1.25 ± 0.04 n.s. | GABA Emax (normalized) in the presence of flupirtine (30 μM) ([3]; 5 mM penicillin plus 30 μM flupirtine, normalized to 30 μM GABA in penicillin plus solvent): 1.46 ± 0.03 | GABA Emax (normalized) in the presence of flupirtine (30 μM) (α1β2 GABAA receptor): 0.71 ± 0.02 | Effect of flupirtine on GABA-evoked currents (α1β2γ2S GABAA receptor; 10 μM flupirtine): augmented | GABA Emax (normalized) in the presence of flupirtine (30 μM) (α1β2γ2S GABAA receptor; 30 μM flupirtine, normalized to 30 μM GABA in solvent): 0.85 ± 0.02 | EC50 (α1β2δ GABAA receptor): 108 µM | Effect of flupirtine on GABA-evoked currents (α1β2δ GABAA receptor): potentiated; also recorded: augmented | Maximum of flupirtine effect on GABA-evoked currents (normalized to solvent) (α1β2δ GABAA receptor): 28.8 | GABA Emax (normalized) in the presence of flupirtine (30 μM) (α1β2δ GABAA receptor; α1β2δ, 30 μM flupirtine, normalized to 30 μM GABA in solvent): 2.27 ± 0.06 | GABA Emax (normalized) in the presence of flupirtine (30 μM) (α2β2γ2S GABAA receptor): 2.54 ± 0.14 n.s. | GABA Emax (normalized) in the presence of flupirtine (30 μM) (α3β3γ2S GABAA receptor): 1.93 ± 0.10 n.s. | GABA Emax (normalized) in the presence of flupirtine (30 μM) (α4β3 GABAA receptor): 0.78 ± 0.02 | GABA Emax (normalized) in the presence of flupirtine (30 μM) (α4β3γ2S GABAA receptor): 1.63 ± 0.05 | EC50 (α4β3δ GABAA receptor): 7 µM | Maximum of flupirtine effect on GABA-evoked currents (normalized to solvent) (α4β3δ GABAA receptor; α4β3δ, 1 μM GABA, fixed to the highest value determined): 1.5 | Effect of flupirtine on GABA-evoked currents (α4β3δ GABAA receptor; α4β3δ, 3 μM flupirtine, 1 μM GABA): potentiated | Effect of flupirtine on GABA-evoked currents (α4β3δ GABAA receptor; α4β3δ, 10 μM flupirtine): augmented | GABA Emax (normalized) in the presence of flupirtine (30 μM) (α4β3δ GABAA receptor; α4β3δ, 30 μM flupirtine, normalized to 30 μM GABA in solvent): 1.55 ± 0.06 | GABA Emax (normalized) in the presence of flupirtine (30 μM) (α5β3γ2S GABAA receptor): 0.94 ± 0.06 | Effect of flupirtine on currents through Kv7 channels at −30 mV ([5]; 3 μM flupirtine): enhanced | Effect of flupirtine on currents through Kv7 channels at −30 mV ([5]; 10 μM flupirtine): augmented | Effect on aIPSC peak amplitudes [6]: unaltered | EC50 ([6]; Rattus norvegicus, Hippocampal neuron, n = 6, read-out: EC50 for the effect on aIPSC charge transfer): 12 µM | Effect on aEPSCs ([4]; aIPSCs (former) vs aEPSCs (latter)): only the former ones were affected | Effect on all characteristics of mIPSCs (amplitudes, rise times, half widths) ([1]; 30 μM flupirtine, 0.5 μM tetrodotoxin plus 10 μM CNQX): remained unaltered | Effect on holding currents ([2]; 30 μM flupirtine, −70 mV): shifted towards more negative values | Effect on amplitudes of bicuculline-sensitive tonic currents ([2]; 3 to 30 μM flupirtine, concentration-dependent): enhanced | Effect of flupirtine on THIP-induced currents [7]: augmented | Effect of flupirtine on K+ currents at −30 mV ([8]; 3 μM flupirtine): enhanced | Effect of flupirtine on K+ currents at −30 mV ([8]; 10 μM flupirtine): increased | Effect of flupirtine on THIP-induced currents [9]: enhanced | Effect of flupirtine on GABA-induced currents [10]: enhanced | Effect of flupirtine on K+ currents [11]: enhanced | Free plasma concentrations [12]: 1000 to 2000 nM | Effect on currents in untransfected cells [13]: failed to enhance any type of current | Reduction of maximal current amplitudes [14]: 18 to 35% | Accumulation ([15]; four regularly spaced oral doses a day, ref Friedel and Fitton, 1993): more than twofold | Plasma half-life ([15]; ref Friedel and Fitton, 1993): about 10 h | Plasma concentrations ([15]; single dose of 200 mg, ref Hummel et al., 1991): around 5 μM | Bound by plasma proteins [16]: 80% | EC50 (Kv7 channels): 5 µM

NCCCC(=O)O [GABA]
GABA Emax (normalized), solvent ([3]; 5 mM penicillin present, normalized to 30 μM GABA in penicillin plus solvent): 1.02 ± 0.02 | GABA Emax (normalized), solvent ([3]; solvent, normalized to current by 30 μM GABA in solvent): 1.33 ± 0.03
